# Data reported in patent US7344829B2, “Methods for detecting the efficacy of anticancer treatments” (Board of Regents, the University of Texas System, priority 2000, dated 2008).
# Where two headings read alike, the source gives them in different places. Marks after values point to notes of the source that are not given here.
# Key:
# [1] = target: T1, c-Met (Homo sapiens, UniProt P08581); test: GST-fused kinase domain assay, c-Met; assay type: biochemical
# T1 construct: GST-fused kinase domains of Kdr, Flt-1, Flk, Tek, c-Met, and c-Kit were expressed in baculovirus; GST; made in house
# Experimental: (§1) GST-fused kinase domains of Kdr, Flt-1, Flk, Tek, c-Met, and c-Kit were expressed in baculovirus and purified over glutathione-Sepharose. Kinase inhibition was measured by detecting the decrease in phosphorylation of poly(Glu,Tyr 4:1) essentially as previously described for EGF-R. Each kinase was incubated under optimized buffer conditions in 20 mM Tris-HCl, pH 7.5, 1–3 mM MnCl2, 3–10 mM MgCl2, 10 μM Na3VO4, 1 mM DTT, 0.2 μCi/[γ-^33P]ATP, 1–8 μM ATP, 3–8 μg/ml poly(Glu,Tyr 4:1), 1% DMSO in a total volume of 30 μl in the presence or absence of PKI166 for 10 min at ambient temperature. Reactions were terminated by adding 10 μl of 250 mM EDTA, and the reaction mixture was transferred onto an Immobilon-PVDG membrane (Millipore, Bedford, Mass.). Following a washing (0.5% H3PO4), a soaking in EtOH, and drying, filters were counted in a liquid scintillation counter. IC50 values for PKI166 were calculated by linear regression analysis of the percentage inhibition. Inhibition of Cdc2/cyclin B protein kinase (Arion et al. 1988; Partanen et al. 1991) and PKC (McGlynn et al. 1992b) was assayed as previously described.
# [2] = mice, cited from earlier work
# [3] = test system: L3.6pl human pancreatic cancer cells; test: Immunohistochemical analysis of human pancreatic carcinoma in the pancreas of treated nude mice; assay type: in vivo; conditions: for PCNA+ tumor cells / TUNEL+ tumor cells: mean ± SD, 10 random 0.159-mm^2 fields at ×100; for CD (CD31, tumor MVD per field): staining with antibodies against CD31
# From the text: Immunohistochemical (IHC) Determination of VEGF, IL-8, PCNA, CD31/PECAM-1, and EGF-R. Paraffin-embedded tissues were used for identification of VEGF, IL-8, EGF-R, and proliferating cell nuclear antigen (PCNA). Sections (4–6 μm thick) were mounted on positively-charged Superfrost slides (Fisher Scientific, Co., Houston, Tex.) and dried overnight. Sections were deparaffinized in xylene followed by treatment with a graded series of alcohol (100%, 95%, 80% ethanol/ddH2O [v/v]) and rehydrated in PBS, pH 7.5. Sections analyzed for PCNA were microwaved 5 min for “antigen retrieval” (Shi et al. 1991). All other paraffin-embedded tissues were treated with pepsin (Biomeda) for 15 min at 37° C. and washed with PBS. Frozen tissues used for identification of CD31/PECAM-1, and activated EGF-R were sectioned (8–10 μm), mounted on positively charged Plus slides (Fisher Scientific), and air-dried for 30 min. Frozen sections were fixed in cold acetone (5 min), acetone/chloroform (v/v) (5 min), and acetone (5 min) and washed with PBS. Immunohistochemical procedures were performed as described previously (Rak et al. 1996). Positive reaction was visualized by incubating the slides with stable 3,3′-diaminobenzidine (DAB) for 10–20 min or 3-amino-9-ethylcarbazole (AEC) after CD31 staining. The sections were rinsed with distilled water, counterstained with Gill's hematoxylin for 1 min, and mounted with Universal Mount (Research Genetics). […] Sections analyzed for activated EGF-R were pretreated with goat anti-mouse IgG F(ab)2 fragment (1:10 dilution in PBS) for 4–6 h before incubation with the primary antibody. The positive reaction following staining for activated EGF-R was enhanced with osmium tetraoxide (4% aqueous solution) at a 1:1000 dilution in ddH2O after incubation with DAB.
# Immunofluorescence Double Staining for CD31/PECAM-1 (Endothelial Cells) and TUNEL (Apoptotic Cells). Frozen tissues were sectioned (8–10 μm), mounted on positively charged slides, air-dried for 30 min, and fixed in cold acetone for 5 min, acetone+chloroform (1:1) for 5 min, and acetone for 5 min. Samples were washed 3 times with PBS, incubated with protein-blocking solution containing 5% normal horse serum and 1% normal goat serum in PBS for 20 min at room temperature, and incubated with the appropriate dilution (1:400) of rat monoclonal anti-mouse CD31 antibody (human cross-reactive) over 18 h at 4° C. After the samples were rinsed 4 times for 3 min each with PBS, the slides were incubated with the appropriate dilution (1:200) of secondary goat anti-rat conjugated to Texas Red for 1 h at room temperature in the dark. Samples were washed twice with PBS containing 0.1% Brij and washed with PBS for 5 min.
# TUNEL was performed using a commercially available apoptosis detection kit with the following modifications: samples were fixed with 4% paraformaldehyde (methanol-free) for 10 min at room temperature, washed twice with PBS for 5 min, and then incubated with 0.2% Triton X-100 for 15 min at room temperature. After two washes of 5 min each with PBS, the samples were incubated with equilibration buffer (from kit) for 10 min at room temperature. The equilibration buffer was drained, and reaction buffer containing equilibration buffer, nucleotide mix, and TdT enzyme was added to the tissue sections and incubated in a humid atmosphere at 37° C. for 1 h in the dark. The reaction was terminated by immersing the samples in 2×SSC for 15 min. Samples were washed 3 times for 5 min to remove unincorporated fluorescein-dUTP. For quantification of […], the samples were incubated with 300 μg/ml of Hoechst stain for 10 min at room temperature. Fluorescent bleaching was minimized by treating slides with an enhancing reagent (Prolong solution). […]
# [4] = target: PKC-α (Homo sapiens, UniProt P17252); test: PKC inhibition assay; assay type: biochemical
# Experimental: as §1
# [5] = test system: VEGF; test: In vitro expression of VEGF by L3.6pl cells (ELISA); assay type: cell-based, human; conditions: 72 h, 1 μM PKI166 or 10 nM gemcitabine, control 1400 pg/ml
# Experimental: In vitro Expression of VEGF and IL-8. L3.6pl cells (2000 cells/38 mm^2 well) were plated into 96-well plates in 200 μl supplemented DMEM containing 5% FBS for 24 h, and then treated with 0.05, 0.5, or 1 μM PKI166. Supplemented DMEM (5% FBS) and human IgG (10 μg/ml) served as controls. Seventy-two hours later, the culture supernatants were collected, and the level of VEGF and IL-8 proteins (corrected for cell number) were determined by Quantikine ELISA kits.
# [6] = mean ± SD absorbance, ratio of tumor cell to normal pancreatic gland expression ×100, day 35
# T1 sequence (P08581 1078-1345 limits assumed): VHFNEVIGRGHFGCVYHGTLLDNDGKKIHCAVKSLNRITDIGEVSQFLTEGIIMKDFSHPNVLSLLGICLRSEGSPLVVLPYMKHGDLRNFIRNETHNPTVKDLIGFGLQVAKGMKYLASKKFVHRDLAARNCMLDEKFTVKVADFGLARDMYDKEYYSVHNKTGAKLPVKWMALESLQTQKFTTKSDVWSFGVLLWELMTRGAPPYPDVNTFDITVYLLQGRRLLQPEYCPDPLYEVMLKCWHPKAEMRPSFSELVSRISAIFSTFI
smiles,measurement,setting,value
"C[C@@H](Nc1ncnc2[nH]c(-c3ccc(O)cc3)cc12)c1ccccc1 [PKI166, 4-(R)-phenethylamino-6-(hydroxyl) phenyl-7H-pyrrolo[2.3-d]-pyrimidine]",IC50,[1],> 1000 nM
same,"Sustained levels of unchanged compound in plasma, time after oral administration","[2]; plasma, oral",up to 8 h
same,Cmax,"[2]; single oral administration of 100 mg/kg, plasma, read-out: C max in plasma",32.8 µM
same,Cmax,"[2]; single oral administration of 100 mg/kg, subcutaneous A431 tumors, read-out: C max in subcutaneous A431 tumors",53 µM
same,t max,[2]; single oral administration of 100 mg/kg,1 h
same,percentage of apoptotic endothelial cells over total endothelial cells,"[3]; CD31/TUNEL double labeling, tumors harvested 23 days after initiation of treatment",20±15
same,ratio of PCNA-positive over TUNEL-positive cells,[3]; calculated,0.64
same,Staining of pancreatic tumors for activated (phosphorylated) EGF-R,[3]; immunohistochemistry of tumors from treated nude mice,not the activated (phosphorylated) EGF-R
same,IL-8,[3]; [6],185 ± 11^e
same,VEGF,[3]; [6],173 ± 20^e
same,PCNA+ tumor cells,[3]; day 35,185±33 positive cells/field
same,TUNEL+ tumor cells,[3]; day 35,287±84 positive cells/field
same,PCNA+ tumor cells,"[3]; day 35, listed as PK1166",185 ± 33 positive cells/field
same,TUNEL+ tumor cells,"[3]; day 35, listed as PK1166",287 ± 84^e positive cells/field
same,"CD (CD31, tumor MVD per field)",[3]; day 35,24±18
same,"CD (CD31, tumor MVD per field)","[3]; day 35, listed as PK1166",24
same,IC50,[4],> 100 µM
same,VEGF in culture supernatant,[5],180 pg/mL
